Laboratory results as given in the NIST ThermoML archive (doi:10.1021/je400968v).

Test: mn = molality of the nth substance listed, in mol/kg
Conditions: 101 kPa, Liquid; for viscosity: Capillary tube (Ostwald / Ubbelohde) method; for mass density: Vibrating tube method

Cc1c(N)cccc1N [2,6-diaminotoluene] + CCCO
Conditions | mass density, 293.15 K [kg/m3] | mass density, 303.15 K [kg/m3] | mass density, 313.15 K [kg/m3] | mass density, 323.15 K [kg/m3] | mass density, 333.15 K [kg/m3] | viscosity, 293.15 K [mPa·s] | viscosity, 303.15 K [mPa·s] | viscosity, 313.15 K [mPa·s] | viscosity, 323.15 K [mPa·s] | viscosity, 333.15 K [mPa·s]
m1 = 0.0501 | 805.5 | 797.18 | 789 | 780.63 | 772.03 | 2.19 | 1.709 | 1.348 | 1.074 | 0.864
m1 = 0.0997 | 807.1 | 798.78 | 790.58 | 782.21 | 773.6 | 2.209 | 1.72 | 1.355 | 1.079 | 0.869
m1 = 0.1498 | 808.7 | 800.36 | 792.16 | 783.77 | 775.16 | 2.226 | 1.734 | 1.365 | 1.086 | 0.874
m1 = 0.1995 | 810.26 | 801.92 | 793.7 | 785.32 | 776.68 | 2.245 | 1.744 | 1.372 | 1.092 | 0.878
m1 = 0.2499 | 811.81 | 803.46 | 795.23 | 786.83 | 778.21 | 2.268 | 1.759 | 1.383 | 1.099 | 0.883
m1 = 0.2994 | 813.34 | 804.95 | 796.73 | 788.33 | 779.69 | 2.282 | 1.77 | 1.391 | 1.106 | 0.888
m1 = 0.3496 | 814.83 | 806.45 | 798.21 | 789.79 | 781.15 | 2.305 | 1.789 | 1.401 | 1.112 | 0.893

Cc1c(N)cccc1N [2,6-diaminotoluene] + CCO
Conditions | mass density, 293.15 K [kg/m3] | mass density, 303.15 K [kg/m3] | mass density, 313.15 K [kg/m3] | mass density, 323.15 K [kg/m3] | mass density, 333.15 K [kg/m3] | viscosity, 293.15 K [mPa·s] | viscosity, 303.15 K [mPa·s] | viscosity, 313.15 K [mPa·s] | viscosity, 323.15 K [mPa·s] | viscosity, 333.15 K [mPa·s]
m1 = 0.0503 | 791.34 | 782.75 | 773.98 | 765.05 | 755.93 | 1.193 | 0.983 | 0.814 | 0.68 | 0.569
m1 = 0.1002 | 793.1 | 784.49 | 775.72 | 766.78 | 757.66 | 1.206 | 0.991 | 0.823 | 0.686 | 0.573
m1 = 0.1497 | 794.82 | 786.2 | 777.43 | 768.49 | 759.36 | 1.221 | 1.002 | 0.829 | 0.69 | 0.578
m1 = 0.1996 | 796.54 | 787.9 | 779.12 | 770.18 | 761.05 | 1.233 | 1.011 | 0.835 | 0.696 | 0.582
m1 = 0.2496 | 798.23 | 789.59 | 780.81 | 771.86 | 762.72 | 1.245 | 1.021 | 0.843 | 0.7 | 0.586
m1 = 0.2997 | 799.92 | 791.26 | 782.49 | 773.53 | 764.4 | 1.258 | 1.03 | 0.849 | 0.707 | 0.591
m1 = 0.3496 | 801.55 | 792.9 | 784.13 | 775.18 | 766.04 | 1.272 | 1.04 | 0.857 | 0.711 | 0.595
m1 = 0.3995 | 803.2 | 794.53 | 785.77 | 776.81 | 767.67 | 1.286 | 1.05 | 0.864 | 0.718 | 0.6
m1 = 0.4497 | 804.84 | 796.16 | 787.4 | 778.43 | 769.3 | 1.3 | 1.061 | 0.872 | 0.723 | 0.604
m1 = 0.4995 | 806.45 | 797.75 | 789 | 780.03 | 770.89 | 1.313 | 1.07 | 0.879 | 0.731 | 0.609
m1 = 0.5495 | 808.02 | 799.33 | 790.56 | 781.61 | 772.46 | 1.328 | 1.08 | 0.888 | 0.736 | 0.613
m1 = 0.5995 | 809.61 | 800.9 | 792.14 | 783.18 | 774.03 | 1.342 | 1.09 | 0.895 | 0.742 | 0.618
m1 = 0.6492 | 811.1 | 802.44 | 793.67 | 784.72 | 775.55 | 1.357 | 1.102 | 0.903 | 0.746 | 0.622
m1 = 0.6984 | 812.63 | 803.98 | 795.19 | 786.23 | 777.07 | 1.372 | 1.112 | 0.91 | 0.753 | 0.626
m1 = 0.7488 | 814.15 | 805.51 | 796.73 | 787.77 | 778.61 | 1.389 | 1.124 | 0.919 | 0.758 | 0.631
m1 = 0.7991 | 815.68 | 807.02 | 798.25 | 789.3 | 780.13 | 1.408 | 1.134 | 0.926 | 0.762 | 0.636

Cc1ccc(N)cc1N [4-methyl-1,3-benzendiamine] + CCCO
Conditions | mass density, 293.15 K [kg/m3] | mass density, 303.15 K [kg/m3] | mass density, 313.15 K [kg/m3] | mass density, 323.15 K [kg/m3] | mass density, 333.15 K [kg/m3] | viscosity, 293.15 K [mPa·s] | viscosity, 303.15 K [mPa·s] | viscosity, 313.15 K [mPa·s] | viscosity, 323.15 K [mPa·s] | viscosity, 333.15 K [mPa·s]
m1 = 0.05 | 805.47 | 797.13 | 788.94 | 780.57 | 771.96 | 2.189 | 1.71 | 1.348 | 1.074 | 0.864
m1 = 0.1003 | 807.05 | 798.71 | 790.49 | 782.12 | 773.5 | 2.206 | 1.723 | 1.354 | 1.079 | 0.868
m1 = 0.15 | 808.57 | 800.22 | 792.01 | 783.62 | 774.99 | 2.225 | 1.735 | 1.365 | 1.086 | 0.875
m1 = 0.1997 | 810.04 | 801.7 | 793.49 | 785.09 | 776.45 | 2.247 | 1.748 | 1.372 | 1.091 | 0.878
m1 = 0.2499 | 811.49 | 803.17 | 794.96 | 786.55 | 777.91 | 2.267 | 1.759 | 1.382 | 1.099 | 0.883
m1 = 0.2999 | 812.87 | 804.6 | 796.4 | 787.99 | 779.34 | 2.294 | 1.774 | 1.389 | 1.106 | 0.889
m1 = 0.3496 | 814.24 | 805.98 | 797.83 | 789.4 | 780.74 | 2.315 | 1.79 | 1.401 | 1.112 | 0.893
m1 = 0.3994 | 815.57 | 807.34 | 799.22 | 790.77 | 782.12 | 2.338 | 1.806 | 1.412 | 1.117 | 0.899

Cc1ccc(N)cc1N [4-methyl-1,3-benzendiamine] + CCO
Conditions | mass density, 293.15 K [kg/m3] | mass density, 303.15 K [kg/m3] | mass density, 313.15 K [kg/m3] | mass density, 323.15 K [kg/m3] | mass density, 333.15 K [kg/m3] | viscosity, 293.15 K [mPa·s] | viscosity, 303.15 K [mPa·s] | viscosity, 313.15 K [mPa·s] | viscosity, 323.15 K [mPa·s] | viscosity, 333.15 K [mPa·s]
m1 = 0.0503 | 791.4 | 782.79 | 774 | 765.08 | 755.96 | 1.196 | 0.982 | 0.815 | 0.68 | 0.571
m1 = 0.0999 | 793.18 | 784.54 | 775.74 | 766.82 | 757.7 | 1.208 | 0.995 | 0.821 | 0.685 | 0.576
m1 = 0.1497 | 794.92 | 786.27 | 777.46 | 768.52 | 759.41 | 1.224 | 1.004 | 0.829 | 0.691 | 0.579
m1 = 0.1994 | 796.64 | 787.95 | 779.14 | 770.21 | 761.1 | 1.236 | 1.015 | 0.836 | 0.696 | 0.583
m1 = 0.2494 | 798.32 | 789.63 | 780.81 | 771.88 | 762.76 | 1.252 | 1.027 | 0.845 | 0.703 | 0.588
m1 = 0.2997 | 799.96 | 791.27 | 782.46 | 773.52 | 764.42 | 1.265 | 1.037 | 0.853 | 0.708 | 0.592
m1 = 0.3496 | 801.58 | 792.88 | 784.07 | 775.13 | 766.03 | 1.28 | 1.046 | 0.861 | 0.714 | 0.597
m1 = 0.3994 | 803.15 | 794.44 | 785.66 | 776.73 | 767.62 | 1.293 | 1.059 | 0.868 | 0.72 | 0.601
m1 = 0.4496 | 804.71 | 796.01 | 787.24 | 778.31 | 769.19 | 1.31 | 1.068 | 0.877 | 0.727 | 0.607
m1 = 0.4995 | 806.25 | 797.53 | 788.77 | 779.84 | 770.7 | 1.323 | 1.079 | 0.883 | 0.731 | 0.61
m1 = 0.5492 | 807.75 | 799.06 | 790.28 | 781.37 | 772.2 | 1.34 | 1.09 | 0.893 | 0.739 | 0.616
m1 = 0.5989 | 809.18 | 800.53 | 791.76 | 782.81 | 773.66 | 1.353 | 1.101 | 0.899 | 0.743 | 0.619
